Measurements published in patent US20100267561A1, “HERBICIDAL PYRIDAZINONE DERIVATIVES” (priority 2007, published 2010).

Columns and labels:
Type in all cases: in vivo
[1] = test system: pigweed (Amaranthus retroflexus); assay: Test A pre-/postemergence plant response
Method in brief: (§1)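 Seeds in loam soil/sand blend treated preemergence by directed soil spray, with simultaneous postemergence spray on 2–10 cm plants at one- to two-leaf stage; compounds in non-phytotoxic solvent with surfactant. Injury visually rated versus untreated controls after about 10 days in greenhouse, 0 (no effect) to 100 (complete control).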

[2] = test system: morningglory (Ipomoea coccinea); assay: Test A pre-/postemergence plant response
Method in brief: as §1

[3] = test system: velvetleaf (Abutilon theophrasti); assay: Test A pre-/postemergence plant response
Method in brief: as §1

[4] = test system: barnyardgrass (Echinochloa crus-galli); assay: Test A pre-/postemergence plant response
Method in brief: as §1

[5] = test system: giant foxtail (Setaria faberi); assay: Test A pre-/postemergence plant response
Method in brief: as §1

[6] = test system: large crabgrass (Digitaria sanguinalis); assay: Test A pre-/postemergence plant response
Method in brief: as §1

[7] = test system: wheat (Triticum aestivum); assay: Test A pre-/postemergence plant response
Method in brief: as §1

corn (Zea mays) = assay: Test A pre-/postemergence plant response
Method in brief: as §1

[8] = test system: chickweed (Stellaria media); assay: Test B postemergence plant response; conditions: Postemergence
Method in brief: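 Postemergence greenhouse test; plants at 2 to 18 cm (1- to 4-leaf stage) given formulated test chemical, held 13 to 15 days, then visually rated against untreated controls on a 0 (no effect) to 100 (complete control) scale; dash means no result.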

[9] = test system: bermudagrass (Cynodon dactylon); assay: Test B pre-/postemergence plant response; conditions: for Bermudagrass plant response rating: preemergence, 0-100 scale
Method in brief: (§2)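 Preemergence and postemergence (plants 2-18 cm, 1- to 4-leaf stage) applications used test chemicals in a non-phytotoxic solvent with surfactant. Plants were held in a greenhouse 13 to 15 days, then rated visually against controls on a 0-100 scale (0 no effect, 100 complete control).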

[10] = test system: cocklebur (Xanthium strumarium); assay: Test B pre-/postemergence plant response
Method in brief: as §2

[11] = test system: yellow nutsedge (Cyperus esculentus); assay: Test B pre-/postemergence plant response
Method in brief: as §2

[12] = Postemergence, 125 g ai/ha, 0 to 100 scale, 0 no effect, 100 complete control
[13] = Postemergence, 500 g ai/ha, 0 to 100 scale, 0 no effect, 100 complete control
[14] = Preemergence, 125 g ai/ha, 0 to 100 scale (0 no effect, 100 complete control)
[15] = Preemergence, 500 g ai/ha, 0 to 100 scale (0 no effect, 100 complete control)
[16] = 31 g ai/ha, scale 0 to 100, 0 no effect, 100 complete control
[17] = Postemergence, 31 g ai/ha, scale 0 to 100, 0 no effect, 100 complete control
[18] = Postemergence, 62 g ai/ha, scale 0 to 100
[19] = Postemergence, 125 g ai/ha, scale 0 to 100
[20] = Postemergence, 250 g ai/ha, scale 0 to 100
[21] = Preemergence, 31 g ai/ha, 0 to 100 scale, 0 no effect, 100 complete control
[22] = Preemergence, 62 g ai/ha, scale 0 to 100
[23] = Preemergence, 125 g ai/ha, scale 0 to 100
[24] = Preemergence, 250 g ai/ha, scale 0 to 100

Cc1cc(-c2ccc(Br)cc2)nn1-c1c(O)cnn(C)c1=O [Compound 4]
30: Plant response rating, Cocklebur [10, 24]
0: Plant response rating, Pigweed [1, 12] | Plant response rating, Pigweed [1, 14] | Plant response rating, Pigweed [1, 15] | Plant response rating, Morningglory [2, 12] | Plant response rating, Morningglory [2, 14] | Plant response rating, Morningglory [2, 15] | Plant response rating, Velvetleaf [3, 14] | Plant response rating, Chickweed [8, 16] | Plant response rating, Chickweed ([8]; 62 g ai/ha, scale 0 to 100) | Plant response rating, Chickweed ([8]; 125 g ai/ha, scale 0 to 100) | Plant response rating, Cocklebur [10, 17] | Plant response rating, Cocklebur [10, 18] | Plant response rating, Cocklebur [10, 19] | Plant response rating, Cocklebur [10, 20] | Plant response rating, Cocklebur [10, 21] | Plant response rating, Cocklebur [10, 22] | Plant response rating, Cocklebur [10, 23] | Plant response rating, Nutsedge, Yellow [11, 17] | Plant response rating, Nutsedge, Yellow [11, 18] | Plant response rating, Nutsedge, Yellow [11, 19] | Plant response rating, Nutsedge, Yellow [11, 20] | Plant response rating, Nutsedge, Yellow [11, 21] | Plant response rating, Nutsedge, Yellow [11, 22] | Plant response rating, Nutsedge, Yellow [11, 23]
10: Plant response rating, Velvetleaf [3, 15]
70: Plant response rating, Wheat [7, 14] | Plant response rating, Corn (corn (Zea mays); [14])
60: Plant response rating, Velvetleaf [3, 13] | Plant response rating, Wheat [7, 12]
80: Plant response rating, Wheat [7, 13]
90: Plant response rating, Corn (corn (Zea mays); [12]) | Plant response rating, Corn (corn (Zea mays); [15])
20: Plant response rating, Pigweed [1, 13] | Plant response rating, Morningglory [2, 13] | Plant response rating, Velvetleaf [3, 12] | Plant response rating, Chickweed ([8]; 250 g ai/ha, scale 0 to 100)
100: Plant response rating, Barnyardgrass [4, 12] | Plant response rating, Barnyardgrass [4, 13] | Plant response rating, Barnyardgrass [4, 14] | Plant response rating, Barnyardgrass [4, 15] | Plant response rating, Foxtail, Giant [5, 12] | Plant response rating, Foxtail, Giant [5, 13] | Plant response rating, Foxtail, Giant [5, 14] | Plant response rating, Foxtail, Giant [5, 15] | Plant response rating, Crabgrass, Large [6, 12] | Plant response rating, Crabgrass, Large [6, 13] | Plant response rating, Crabgrass, Large [6, 14] | Plant response rating, Crabgrass, Large [6, 15] | Plant response rating, Wheat [7, 15] | Plant response rating, Corn (corn (Zea mays); [13]) | Bermudagrass plant response rating ([9]; 250 g ai/ha) | Plant response rating, Bermudagrass [9, 17] | Plant response rating, Bermudagrass [9, 18] | Plant response rating, Bermudagrass [9, 19] | Plant response rating, Bermudagrass [9, 20] | Plant response rating, Bermudagrass [9, 21] | Plant response rating, Bermudagrass [9, 22] | Plant response rating, Bermudagrass [9, 23]

Cc1cc(-c2ccc(Br)cc2)nn1-c1c(OC(=O)OC(C)C)cnn(C)c1=O [Compound 6]
50: Plant response rating, Morningglory [2, 13] | Plant response rating, Velvetleaf [3, 13] | Plant response rating, Velvetleaf [3, 15] | Plant response rating, Wheat [7, 12]
80: Plant response rating, Wheat [7, 14] | Plant response rating, Corn (corn (Zea mays); [14])
100: Plant response rating, Barnyardgrass [4, 13] | Plant response rating, Barnyardgrass [4, 15] | Plant response rating, Foxtail, Giant [5, 14] | Plant response rating, Foxtail, Giant [5, 15] | Plant response rating, Crabgrass, Large [6, 14] | Plant response rating, Crabgrass, Large [6, 15] | Plant response rating, Corn (corn (Zea mays); [12]) | Plant response rating, Corn (corn (Zea mays); [13]) | Bermudagrass plant response rating ([9]; 250 g ai/ha) | Plant response rating, Bermudagrass [9, 17] | Plant response rating, Bermudagrass [9, 18] | Plant response rating, Bermudagrass [9, 19] | Plant response rating, Bermudagrass [9, 20] | Plant response rating, Bermudagrass [9, 21] | Plant response rating, Bermudagrass [9, 22] | Plant response rating, Bermudagrass [9, 23]
40: Plant response rating, Pigweed [1, 15] | Plant response rating, Morningglory [2, 15] | Plant response rating, Velvetleaf [3, 12] | Plant response rating, Velvetleaf [3, 14] | Plant response rating, Cocklebur [10, 20]
20: Plant response rating, Pigweed [1, 14]
70: Plant response rating, Wheat [7, 13]
0: Plant response rating, Pigweed [1, 12] | Plant response rating, Chickweed [8, 16] | Plant response rating, Chickweed ([8]; 62 g ai/ha, scale 0 to 100) | Plant response rating, Chickweed ([8]; 125 g ai/ha, scale 0 to 100) | Plant response rating, Chickweed ([8]; 250 g ai/ha, scale 0 to 100) | Plant response rating, Cocklebur [10, 17] | Plant response rating, Cocklebur [10, 18] | Plant response rating, Cocklebur [10, 19] | Plant response rating, Cocklebur [10, 21] | Plant response rating, Cocklebur [10, 22] | Plant response rating, Cocklebur [10, 23] | Plant response rating, Cocklebur [10, 24] | Plant response rating, Nutsedge, Yellow [11, 17] | Plant response rating, Nutsedge, Yellow [11, 18] | Plant response rating, Nutsedge, Yellow [11, 19] | Plant response rating, Nutsedge, Yellow [11, 20] | Plant response rating, Nutsedge, Yellow [11, 21] | Plant response rating, Nutsedge, Yellow [11, 22] | Plant response rating, Nutsedge, Yellow [11, 23] | Plant response rating, Nutsedge, Yellow [11, 24]
30: Plant response rating, Pigweed [1, 13] | Plant response rating, Morningglory [2, 12] | Plant response rating, Morningglory [2, 14]
90: Plant response rating, Barnyardgrass [4, 12] | Plant response rating, Barnyardgrass [4, 14] | Plant response rating, Foxtail, Giant [5, 12] | Plant response rating, Foxtail, Giant [5, 13] | Plant response rating, Crabgrass, Large [6, 12] | Plant response rating, Crabgrass, Large [6, 13] | Plant response rating, Wheat [7, 15] | Plant response rating, Corn (corn (Zea mays); [15])
